Experimental data as given in patent publication US10111854B2, “Synthesis and use of amine-containing flavonoids as potent anti-leishmanial agents” (The Hong Kong Polytechnic University, priority 2014, dated 2018).
Counter-ions that a name gives are not always drawn.

Assays:
[1] = test system: L. amazonensis LV78 promastigotes; test: Anti-promastigote activity (MTS assay), L. amazonensis LV78; type: cell-based; conditions: 72 hours
Experimental: (§1) Promastigotes of visceral L. donovani Ld39 and LdHU3, and cutaneous L. amazonensis LV78, L. braziliensis UA847 and L. major FV1 were employed in the study. All strains were cultured in Schneider's Drosophila Medium (Invitrogen), pH 6.9 supplemented with 10% (v/v) heat inactivated fetal bovine serum (Hyclone) with 4 mM glutamine (Sigma) and 25 μg/mL gentamicin solution (Invitrogen) at 27° C. for 4 days. RAW264.7 cells were cultured in supplemented DMEM media with 10% heat inactivated FBS and 100 U/mL penicillin and 100 μg/mL of streptomycin. They were maintained at 37° C. in a humidified atmosphere with 5% CO2. The cells were split constantly after a confluent monolayer has been formed. The cells were harvested by a cell scraper.
(§2) Anti-promastigote activity was determined according to previous procedures (1) by Cell Titer 96® Aqueous Assay (Promega) that employed a tetrazolium compound. Promastigotes were seeded into 96-well flat bottom microtiter plate at 1×10^5 cells per well in a final volume of 100 μL medium and incubated with a series of concentrations of synthetic FM. Parasites were incubated at 27° C. for 72 hours. After 72 hours of incubation, 10 μL of MTS:PMS mixture [MTS:2-(4,5-Dimethylthiazol-2-yl-)-5-[3-(carboxymethoxy)phenyl]-2-(4-sulfophenyl)-2H-tetrazolium); PMS: phenazine methosulfate both purchased from Sigma] was added into each well of microtiter plate. The plate was then incubated at 27° C. for 4 hours for color development. After 4 hours of incubation, the OD values were determined at 490 nm using automatic microtiter plate reader (Bio-Rad).
(§3) IC50 values of known antileishmanials and the amine-containing flavonoid monomers of the present invention to promastigotes (L. amazonensis LV78, L major FV1, L. donovani HU3, L. donovani 39), macrophages (Raw 264.7 and PEM) and mouse fibroblast (L929) were determined. The anti-promastigotes activities and cytotoxicity of the amine-containing flavonoid monomers of the invention are shown in Table 1.

[2] = test system: L. donovani HU3 promastigotes; test: Anti-promastigote activity (MTS assay), L. donovani HU3; type: cell-based; conditions: 72 hours
Experimental: as §1, §2, §3

[3] = Cytotoxicity, peritoneal elicited macrophages (PEM); type: cell-based, mouse; conditions: mouse, Cytotoxicity IC50, PEM
Experimental: (§4) Mouse peritoneal elicited macrophages (PEM) were obtained as previously described (2). A round cover slip (12 mm in diameter) was placed into each well of 24-well culture plate. Mouse PEM were resuspended in supplemented DMEM media containing 10% heat inactivated FBS (v/v), 100 U/mL penicillin and 100 μg/mL streptomycin and seeded into each well at a cell density of 1×10^5 cells per 500 μL. Macrophages were allowed to attach overnight. Non-adherent cells were removed by gentle washing with un-supplemented DMEM media twice. Adherent macrophages were infected with late-log promastigotes at a parasite-to-macrophage ratio of 20:1 overnight at 37° C. with 5% CO2. Non-internalized promastigotes were removed by washing twice with un-supplemented DMEM media. Infected macrophages were further incubated in 500 μL of supplemented DMEM media in the presence or absence of FM for 72 hours at 37° C. After incubation, cover slips were stained with Giemsa and the percentage of macrophages infected and number of amastigotes per 100 macrophages was enumerated.
as §3

[4] = test system: L. amazonensis LV78 amastigotes; test: Anti-amastigote activity in infected PEM, L. amazonensis LV78; type: cell-based; conditions: for IC50: infected PEM, 3 days, Giemsa; for Selective index (a)/(b): IC50 RAW264.7 over IC50 L. amazonensis LV78 amastigotes
Experimental: as §4
(§5) PEM cells were infected with late-log promastigotes (L. amazonensis LV78, L. braziliensis UA847, L. donovani HU3, L. donovani 39) for 24 hr at 37° C. Infected macrophages were then treated with various antileishmanials and incubated for 3 days at 37° C. After 3 days, the cover slips were stained with Giemsa. The number of amastigotes per 100 macrophages were determined and used to calculate IC50 values.

[5] = test system: L. donovani HU3 amastigotes; test: Anti-amastigote activity in infected PEM, L. donovani HU3; type: cell-based; conditions: infected PEM, 3 days, Giemsa, SSG-sensitive
Experimental: as §4, §5

[6] = test system: L. amazonensis and L. donovani HU3 promastigotes and amastigotes; test: Anti-promastigote and anti-amastigote activity of FM09, FM01 and FM05 derivatives; type: cell-based, Leishmania; conditions: stage and strain not specified; read-out: IC50, anti-promastigote and anti-amastigote activity (Table 3C)
Experimental: Derivatives of FM09, FM01 and FM05 were synthesized and their anti-promastigote and anti-amastigote activity were determined (Table 3C). Many amine-containing flavonoid monomers have IC50 less than 5 μM, including FM09a, FM09b, FM09c, FM09e, FM09h, FM09i, FM09k, FM09l, FM01b and FM05b.

[7] = Cytotoxicity, L929 fibroblasts; type: cell-based, mouse; conditions: mouse
Experimental: as §3

[8] = test system: peritoneal elicited macrophages (PEM); test: Cytotoxicity, peritoneal elicited macrophages (PEM); type: cell-based, mouse
Experimental: as §4, §3

[9] = test system: mouse fibroblast (L929); test: Cytotoxicity, L929 fibroblasts; type: cell-based; conditions: mouse fibroblast L929
Experimental: as §3

[10] = test system: L. major FV1 promastigotes; test: Anti-promastigote activity (MTS assay), L. major FV1; type: cell-based; conditions: 72 hours
Experimental: as §1, §2, §3

[11] = test system: L. donovani Ld39 promastigotes; test: Anti-promastigote activity (MTS assay), L. donovani Ld39; type: cell-based; conditions: 72 hours
Experimental: as §1, §2, §3

[12] = test system: L. braziliensis UA847 amastigotes; test: Anti-amastigote activity in infected PEM, L. braziliensis UA847; type: cell-based; conditions: Leishmania braziliensis, 72 h, 3 days, Giemsa, read-out: Anti-amastigote activity IC50, L. baziliensis UA847
Experimental: as §4, §5

[13] = test system: L. donovani Ld39 amastigotes (SSG-resistant); test: Anti-amastigote activity in infected PEM, L. donovani Ld39; type: cell-based; conditions: for IC50: Leishmania donovani, 72 h, infected PEM, 3 days, Giemsa, SSG-resistant
Experimental: as §4, §5

[14] = Pharmacokinetics study of FM09, FM09h and FM05b, iv and oral; type: in vivo, Balb/c mice; conditions: 50 mg/kg oral; for bioavailability: Balb/c, mouse, plasma, 10 mg/kg iv, dose-adjusted AUC oral over iv, read-out: Bioavailability (F)
Experimental: Animals were sacrificed at the indicated time point and plasma level of the corresponding flavonoids were determined using LC-MSMS. IC50 of corresponding flavonoids are indicated. Bioavailability (F) was calculated by dividing the dose-adjusted area under curve (AUC) of that of orally-fed over intravenously administered animals.

[15] = Pharmacokinetics of FM05 hydrochloride salt, oral; type: in vivo, Balb/c mice; conditions: mouse, in vivo, po, 42 mg/kg
Experimental: Based on the result of the preliminary in vivo study, FM05 hydrochloride salt was selected for further investigation. FM05 hydrochloride salt was dissolved in saline at 4 mg/ml and administered to male balb/c at 42 mg/kg. Blood plasma samples were collected at various time points for pharmacokinetics analysis (n=2 to 3 for each time point).

[16] = test system: amastigotes (L. amazonensis LV78, L. braziliensis UA847, L. donovani HU3, L. donovani 39); test: Anti-amastigote activity, strain not given; type: cell-based; conditions: strain not specified; visceral and cutaneous Leishmania; read-out: IC50 against amastigotes
Experimental: as §4, §5

Compound	IC50 ([1]; Leishmania amazonensis)	IC50 ([2]; Leishmania donovani)	IC50 ([4]; Leishmania amazonensis, 72 h)	IC50 ([5]; Leishmania donovani, 72 h)	IC50 [6]	IC50 [3]	IC50 [7]	other results
O=c1cc(-c2ccc(OCCOCCNCc3ccccn3)cc2)oc2ccccc12 [FM09m.HCl]	–	–	–	–	–	–	–	IC50 [1]: 14.3 ± 3.3 µM; IC50 [2]: 18.2 ± 2.13 µM; IC50 [8]: 28.3 µM; IC50 [4]: 7.86 ± 2.15 µM; IC50 [5]: > 10 µM
O=c1cc(-c2ccc(OCCOCCN(Cc3ncccc3F)Cc3ncccc3F)cc2)oc2ccccc12 [FM09c.HCl]	–	–	–	–	–	–	–	IC50 [1]: 2.66 ± 0.3 µM; IC50 [2]: 4.97 ± 1.04 µM; IC50 [9]: 39 ± 6.1 µM; IC50 [4]: 1.45 ± 0.31 µM; IC50 [5]: 2.9 ± 1.49 µM
CCCCCCCCCCCCCCCCOP(=O)([O-])OCC[N+](C)(C)C [Miltefosine, reference compound]	32.7 ± 26.9 µM	5.1 ± 1.4 µM	32.7 ± 26.9 µM	–	–	75.3 ± 9.4 µM	–	IC50 ([10]; Leishmania major): 9.7 ± 1.2 µM; IC50 ([11]; Leishmania donovani): 17.3 ± 2.1 µM; Selective index (a)/(b) [4]: 0.6; IC50 [12]: 13 ± 1.3 µM; Selective index (a)/(c) ([13]; IC50 RAW264.7 over IC50 L. donovani Ld39 amastigotes): 1.3; IC50 [13]: 16 ± 6.4 µM
O=c1cc(-c2ccc(OCCOCCN(Cc3cccnc3)Cc3cccnc3)cc2)oc2ccccc12 [FM09b.HCl]	–	–	–	–	–	–	–	IC50 [1]: 8.08 ± 1.99 µM; IC50 [2]: 12.9 ± 7.32 µM; IC50 [9]: 75.1 ± 13.6 µM; IC50 [4]: > 10 µM; IC50 [5]: > 10 µM
Cl.O=c1cc(-c2ccc(OCCC3CCN(Cc4ccncc4)CC3)cc2)oc2ccccc12 [FM05.HCl]	–	–	–	–	–	–	–	IC50 [1]: 6 ± 0.5 µM; IC50 [10]: 3.5 ± 0.9 µM; IC50 [11]: 1.2 ± 0.5 µM; IC50 [8]: 23.8 µM; IC50 ([4]; listed as FM05.HCI): 6.9 ± 0.9 µM; AUC(0-7 hr) [15]: 83089 ng·min/mL; Cmax (obs) [15]: 312.8 ng/mL; Half-life (Distribution and absorption) [15]: 0.417 h; Half-life (Elimination) [15]: 3.37 h; MRT (area) [15]: 5.35 h; Tmax (obs) [15]: 2 h

Now from value to compound, other results behind:

IC50 ([1]; Leishmania amazonensis)	IC50 ([2]; Leishmania donovani)	IC50 ([4]; Leishmania amazonensis, 72 h)	IC50 ([5]; Leishmania donovani, 72 h)	IC50 [6]	Compound	IC50 [3]	IC50 [7]	other results
3.19 ± 0.66 µM	5.09 ± 1.13 µM	1.95 ± 0.78 µM	3.1 µM	< 5 µM	O=c1cc(-c2ccc(OCCOCCN(Cc3ncccc3F)Cc3ncccc3F)cc2)oc2ccccc12 [FM09c, 2-(4-(2-(2-(bis((3-fluoropyridin-2-yl)methyl)amino)ethoxy)ethoxy)phenyl)-4H-chromen-4-one]	35.4 ± 1.05 µM	–	–
0.16 ± 0.05 µM	1.06 ± 0.1 µM	0.32 ± 0.02 µM	0.3 ± 0.04 µM	< 5 µM	COCCCOc1ccnc(CN(CCOCCOc2ccc(-c3cc(=O)c4ccccc4o3)cc2)Cc2nccc(OCCCOC)c2C)c1C [FM09k, 2-(4-(2-(2-(bis((4-(3-methoxypropoxy)-3-methylpyridin-2-yl)methyl)amino)ethoxy)ethoxy)phenyl)-4H-chromen-4-one]	5.3 µM	4.7 ± 0.71 µM	–
0.57 ± 0.17 µM	0.89 ± 0.33 µM	0.3 ± 0.06 µM	0.7 ± 0.37 µM	< 5 µM	COc1ccnc(CN2CCC(CCOc3ccc(-c4cc(=O)c5ccccc5o4)cc3)CC2)c1OC [FM05b, 2-(4-(2-(1-((3,4-dimethoxypyridin-2-yl)methyl)piperidin-4-yl)ethoxy)phenyl)-4H-chromen-4-one]	5.1 µM	10.6 ± 1.13 µM	Time post oral feeding at which plasma level remains higher than respective IC50 [14]: 420 min; bioavailability [14]: 36%
> 100 µM	38.8 ± 6.9 µM	> 10 µM	–	–	CS(=O)(=O)NCCOCCOc1ccc(-c2cc(=O)c3ccccc3o2)cc1 [FM07, N-(2-(2-(4-(4-oxo-4H-chromen-2-yl)phenoxy)ethoxy)ethyl)methanesulfonamide]	–	26 ± 4.1 µM	IC50 ([10]; Leishmania major): > 100 µM; IC50 ([11]; Leishmania donovani): 21.4 ± 2.6 µM; IC50 [12]: > 10 µM; IC50 [13]: > 10 µM
17.5 ± 3.2 µM	9.8 ± 2.5 µM	1.3 ± 0.6 µM	> 10 µM	–	O=c1cc(-c2ccc(OCCOCCN(Cc3ccccc3)Cc3ccccc3)cc2)oc2ccccc12 [FM19, 2-(4-(2-(2-(dibenzylamino)ethoxy)ethoxy)phenyl)-4H-chromen-4-one]	–	55.1 ± 7.2 µM	IC50 ([10]; Leishmania major): 21.6 ± 4.2 µM; IC50 ([11]; Leishmania donovani): > 100 µM; Selective index (a)/(b) [4]: >76.9; IC50 [12]: < 0.37 µM; IC50 [13]: > 10 µM; IC50 [16]: < 5 µM
> 100 µM	66.2 ± 11 µM	> 10 µM	> 9 µM	–	O=C(NCCOCCOc1ccc(-c2cc(=O)c3ccccc3o2)cc1)c1ccncc1 [FM03, N-(2-(2-(4-(4-oxo-4H-chromen-2-yl)phenoxy)ethoxy)ethyl)isonicotinamide]	–	> 100 µM	IC50 ([10]; Leishmania major): > 100 µM; IC50 ([11]; Leishmania donovani): > 100 µM; IC50 [12]: > 10 µM; IC50 [13]: > 10 µM
0.47 ± 0.07 µM	1.09 ± 0.09 µM	0.29 ± 0.05 µM	0.3 ± 0.04 µM	< 5 µM	Cc1c(OCC(F)(F)F)ccnc1CN(CCOCCOc1ccc(-c2cc(=O)c3ccccc3o2)cc1)Cc1nccc(OCC(F)(F)F)c1C [FM09h, 2-(4-(2-(2-(bis((3-methyl-4-(2,2,2-trifluoroethoxy)pyridin-2-yl)methyl)amino)ethoxy)ethoxy)phenyl)-4H-chromen-4-one]	6.4 µM	3.62 ± 0.51 µM	Time post oral feeding at which plasma level remains higher than respective IC50 [14]: 180 min; bioavailability [14]: 5%
0.08 ± 0.01 µM	0.18 ± 0.07 µM	0.27 ± 0.02 µM	0.3 ± 0.05 µM	< 5 µM	COc1c(C)cnc(CN(CCOCCOc2ccc(-c3cc(=O)c4ccccc4o3)cc2)Cc2ncc(C)c(OC)c2C)c1C [FM09i, 2-(4-(2-(2-(bis((4-methoxy-3,5-dimethylpyridin-2-yl)methyl)amino)ethoxy)ethoxy)phenyl)-4H-chromen-4-one]	4.5 µM	2.28 ± 0.83 µM	–
4.44 ± 1.24 µM	4.74 ± 0.56 µM	3.03 ± 0.41 µM	4.5 ± 2.38 µM	< 5 µM	O=c1cc(-c2ccc(OCCOCCN(Cc3ccc4ccccc4n3)Cc3ccc4ccccc4n3)cc2)oc2ccccc12 [FM09l, 2-(4-(2-(2-(bis(quinolin-2-ylmethyl)amino)ethoxy)ethoxy)phenyl)-4H-chromen-4-one]	67.1 µM	> 100 µM	–
